PMC10452110, “Indole-3-Acetamido-Polyamines as Antimicrobial Agents and Antibiotic Adjuvants” (Biomolecules, 2023)

How the values were obtained:
[1] = tested on: Klebsiella pneumoniae (ATCC 700603); test: Intrinsic antimicrobial activity (MIC) against K. pneumoniae; format: cell-based; conditions: ATCC700603, K. pneumoniae ATCC 700603, mean (n = 2), read-out: MIC K. p
Protocol: (§1) The susceptibility of bacterial strains Staphylococcus aureus (ATCC 25923), Escherichia coli (ATCC 25922) and Pseudomonas aeruginosa (ATCC 27853) to antibiotics and compounds was determined using previously reported protocols. Additional antimicrobial evaluation against MRSA (ATCC 43300), Klebsiella pneumoniae (ATCC 700603), Acinetobacter baumannii (ATCC 19606), Candida albicans (ATCC 90028) and Cryptococcus neoformans (ATCC 208821) was undertaken at the Community for Open Antimicrobial Drug Discovery at The University of Queensland (Australia) according to their standard protocols, as reported previously.

[2] = tested on: Candida albicans (ATCC 90028); test: Intrinsic antifungal activity (MIC) against C. albicans; format: cell-based; conditions: ATCC90028, C. albicans ATCC 90028, mean (n = 2), read-out: MIC C. a
How it was run: (§2)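 MIC values come from two sources: bacteria tested by previously reported protocols, and Candida and Cryptococcus tested at the Community for Open Antimicrobial Drug Discovery under standard conditions.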

Cytotoxicity assay = format: cell-based; conditions: human; HEK293 cells; mean (n = 2); read-out: Cytotoxicity: concentration of compound at 50% cytotoxicity (IC50)
Protocol: Cytotoxicity assays were conducted using the protocols previously reported.

[3] = tested on: Escherichia coli (ATCC 25922); test: Intrinsic antimicrobial activity (MIC) against E. coli; format: cell-based; conditions: ATCC25922, E. coli ATCC 25922, mean (n = 3), read-out: MIC E. c
How it was run: (§3)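 Antibacterial MICs by established in-house protocol; yeast MICs run externally at CO-ADD, University of Queensland, per their standard screening protocols.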

[4] = tested on: Pseudomonas aeruginosa (ATCC 27853); test: Intrinsic antimicrobial activity (MIC) against P. aeruginosa; format: cell-based; conditions: ATCC27853, P. aeruginosa ATCC 27853, mean (n = 3), read-out: MIC P. a
How it was run: as §3

[5] = tested on: Cryptococcus neoformans (ATCC 208821); test: Intrinsic antifungal activity (MIC) against C. neoformans; format: cell-based; conditions: ATCC208821, C. neoformans ATCC 208821, mean (n = 2), read-out: MIC C. n
How it was run: as §2

human red blood cells = test: Hemolytic assay; format: cell-based; conditions: mean (n = 2)
Protocol: Hemolysis assays were conducted using the protocols previously reported.

E. coli ATCC 25922 = test: Enhancement of erythromycin action against E. coli; format: cell-based, Escherichia coli; conditions: erythromycin at 10.9 µM
Protocol: (§4) Antibiotic enhancer concentrations were determined using previously reported protocols.

MRSA (ATCC 43300) = test: Intrinsic antimicrobial activity (MIC) against MRSA; format: cell-based; conditions: Staphylococcus aureus, MRSA ATCC 43300; mean (n = 2); read-out: MIC MRSA
How it was run: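 Bacterial susceptibility was determined following previously reported protocols. The antifungal evaluations were carried out at the Community for Open Antimicrobial Drug Discovery (University of Queensland, Australia) under its standard protocols.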

P. aeruginosa ATCC 27853 = test: Enhancement of doxycycline action against P. aeruginosa; format: cell-based, Pseudomonas aeruginosa; conditions: doxycycline at 4.5 µM
Protocol: as §4

[6] = tested on: Acinetobacter baumannii (ATCC 19606); test: Intrinsic antimicrobial activity (MIC) against A. baumannii; format: cell-based; conditions: ATCC19606, A. baumannii ATCC 19606, mean (n = 2), read-out: MIC A. b
Protocol: as §1

[7] = tested on: Staphylococcus aureus (ATCC 25923); test: Intrinsic antimicrobial activity (MIC) against S. aureus; format: cell-based; conditions: ATCC25923, S. aureus ATCC 25923, mean (n = 3), read-out: MIC S. a
How it was run: as §3

| SMILES | MIC [1] [µM] | MIC [2] [µM] | IC50 (Cytotoxicity assay) [µM] | MIC [3] [µM] | MIC [4] [µM] | MIC [5] [µM] | Hemolysis: concentration of compound at 10% hemolytic activity (HC10) (human red blood cells) [µM] | Eryth/E. c: concentration required to restore erythromycin activity (combination MIC) (E. coli ATCC 25922) [µM] | MIC (MRSA (ATCC 43300)) [µM] | Dox/P. a fold change (ratio between intrinsic MIC of the test compound and combination MIC) (P. aeruginosa ATCC 27853) [fold] | Dox/P. a: concentration required to restore doxycycline activity (combination MIC) (P. aeruginosa ATCC 27853) [µM] | MIC [6] [µM] | MIC [7] [µM] |
| --- | --- | --- | --- | --- | --- | --- | --- | --- | --- | --- | --- | --- | --- |
| COc1ccc2[nH]cc(CC(=O)NCCCNCCCCCCCCCCNCCCNC(=O)Cc3c[nH]c4ccc(OC)cc34)c2c1.O=C(O)C(F)(F)F.O=C(O)C(F)(F)F [Compound 16e, N^1,N^10-Bis(3-(2-(5-methoxy-1H-indol-3-yl)acetamido)propyl)decane-1,10-diaminium 2,2,2-trifluoroacetate] | > 36 | 2.25 | > 36 | 14.1 | 112 | ≤ 0.28 | >36 | 28.1 | ≤ 0.28 | 8 | 14.1 | > 36 | 7.03 |
| COc1ccc2[nH]cc(CC(=O)NCCCNCCCCCCCCCCCCNCCCNC(=O)Cc3c[nH]c4ccc(OC)cc34)c2c1.O=C(O)C(F)(F)F.O=C(O)C(F)(F)F [Compound 16f, N^1,N^12-Bis(3-(2-(5-methoxy-1H-indol-3-yl)acetamido)propyl)dodecane-1,12-diaminium 2,2,2-trifluoroacetate] | > 35 | 35 | > 35 | 13.6 | 109 | ≤ 0.27 | >35 | 27.3 | ≤ 0.27 | 8 | 13.6 | > 35 | 6.82 |
| Cc1ccc2[nH]cc(CC(=O)NCCCNCCCCNCCCNC(=O)Cc3c[nH]c4ccc(C)cc34)c2c1.O=C(O)C(F)(F)F.O=C(O)C(F)(F)F [Compound 17a, N^1,N^4-Bis(3-(2-(5-methyl-1H-indol-3-yl)acetamido)propyl)butane-1,4-diaminium 2,2,2-trifluoroacetate] | > 41 | 20.7 | > 41 | > 259 | > 259 | ≤ 0.32 | 8.46 | 64.7 | ≤ 0.32 | > 2 | 129 | > 41 | 129 |
| Cc1ccc2[nH]cc(CC(=O)NCCCNCCCCCCNCCCNC(=O)Cc3c[nH]c4ccc(C)cc34)c2c1.O=C(O)C(F)(F)F.O=C(O)C(F)(F)F [Compound 17b, N^1,N^6-Bis(3-(2-(5-methyl-1H-indol-3-yl)acetamido)propyl)hexane-1,6-diaminium 2,2,2-trifluoroacetate] | > 40 | 40 | > 40 | 250 | > 250 | ≤ 0.31 | 23.1 | 31.2 | ≤ 0.31 | > 8 | 31.2 | > 40 | 31.2 |
| Cc1ccc2[nH]cc(CC(=O)NCCCNCCCCCCCNCCCNC(=O)Cc3c[nH]c4ccc(C)cc34)c2c1.O=C(O)C(F)(F)F.O=C(O)C(F)(F)F [Compound 17c, N^1,N^7-Bis(3-(2-(5-methyl-1H-indol-3-yl)acetamido)propyl)heptane-1,7-diaminium 2,2,2-trifluoroacetate] | > 39 | 39.3 | > 39 | 245 | > 245 | < 0.2 | >39 | 61.4 | < 0.2 | > 2 | 123 | > 39 | 61.4 |
| Cc1ccc2[nH]cc(CC(=O)NCCCNCCCCCCCCCCNCCCNC(=O)Cc3c[nH]c4ccc(C)cc34)c2c1.O=C(O)C(F)(F)F.O=C(O)C(F)(F)F [Compound 17e, N^1,N^10-Bis(3-(2-(5-methyl-1H-indol-3-yl)acetamido)propyl)decane-1,10-diaminium 2,2,2-trifluoroacetate] | > 37 | ≤ 0.29 | > 37 | 58.3 | 233 | ≤ 0.29 | 3.19 | 29.2 | ≤ 0.29 | 1 | 233 | 37 | 7.29 |
| Cc1ccc2[nH]cc(CC(=O)NCCCNCCCCCCCCCCCCNCCCNC(=O)Cc3c[nH]c4ccc(C)cc34)c2c1.O=C(O)C(F)(F)F.O=C(O)C(F)(F)F [Compound 17f, N^1,N^12-Bis(3-(2-(5-methyl-1H-indol-3-yl)acetamido)propyl)dodecane-1,12-diaminium 2,2,2-trifluoroacetate] | > 36 | ≤ 0.28 | > 36 | 14.1 | 226 | ≤ 0.28 | ≤0.28 | 14.1 | ≤ 0.28 | 1 | 226 | 36 | 7.06 |
| O=C(Cc1c[nH]c2c(F)cccc12)NCCCNCCCCNCCCNC(=O)Cc1c[nH]c2c(F)cccc12.O=C(O)C(F)(F)F.O=C(O)C(F)(F)F [Compound 18a, N^1,N^4-Bis(3-(2-(7-fluoro-1H-indol-3-yl)acetamido)propyl)butane-1,4-diaminium 2,2,2-trifluoroacetate] | > 41 | 5.12 | > 41 | 256 | > 256 | < 0.2 | >41 | 64.0 | < 0.2 | 4 | 64.0 | > 41 | 16 |
